Tests used:
[1] = tested on: cancer cells (855-2 and HL-60 leukemia, D32, D37 and CRL 7712 glioblastoma, 186 medulla tumor, L1210 murine leukemia, MDA-468 human breast tumor); test: Functions of cancer cells in absence or presence of compounds (FIGS. 4-9); format: cell-based
Experimental: Experiments were performed in which the functions of various cancer cells (855-2 and HL-60 leukemia cells, D32, D37 and CRL 7712 glioblastoma cell lines, 186 medulla tumor cell line, L1210 murine leukemia cell line, MDA-468 human breast tumor cell line) and normal cells (neutrophil leukocytes and bone marrow or peripheral blood stream cells) were assessed in the absence or presence of the compounds.

[2] = biological target: Zn(HIV1-F1), N-terminal CCHC zinc finger of the HIV-1 NC protein (Human immunodeficiency virus type 1 lw12.3 isolate, UniProt Q70622); test: NMR studies of zinc ejection from Zn(HIV1-F1); format: biochemical; conditions: 2 mM NOBA
Experimental: The * and + symbols denote the aromatic proton signals of the zinc-coordinated and zinc-free His 9 residue. Upon completion of the reaction, reflected by complete ejection of zinc (t=90 min), 50% of the NOBA remained unreacted indicating a 1:1 reaction stoichiometry. NOBA (3-nitrosobenzamide), was synthesized described elsewhere in this application.
To determine if NOBA is capable of ejecting zinc from retroviral-type zinc fingers, NMR studies were performed on a peptide with amino acid sequence corresponding to the N-terminal CCHC zinc finger of the HIV-1 NC protein, Zn(HIV1-F1), South, et al., J. Am. Chem. Soc. 111:395-396 (1989), South, et al., Biochem Pharm. 40:123-129 (1990), Summers, et al., Biochemistry 29:329-340 (1990). NMR spectra of Zn(HIV-F1) were performed before and after the addition of NOBA (3-nitrosobenzamide). […] Chem Soc. 111:395-396 (1989), and three-dimensional structural studies have shown that the peptide adopts a structure that is essentially identical to the structure of the corresponding region in the intact NC protein, South, et al., Biochemistry 29:7786-7789 (1990). The down-field region of the ^1 H NMR spectrum showing the signals due to the aromatic proton of His 9 and Phe 2 is illustrated in FIG. 10 (bottom). […]

[3] = tested on: L1210 murine leukemia; test: L1210 murine leukemia in vivo in BDF mice; design: species or system mouse; conditions: 2 mg/kg i.p. twice a day
[4] = tested on: 855-2 cells; test: MTT assay, cytocidal activity; format: cell-based, human; conditions: 10 μM, 100,000 cells/ml
Experimental: MTT (3-[4,5-[…]]-2,5-diphenyltetrazolium bromide) at 1 mg/ml was then added for 16 hours. The absorbance of the pelleted cell was then measured at 550 nm after adding DMSO to solubilze the cells.

[5] = PHA-PBL viability (MTT dye reduction); format: cell-based; conditions: human, read-out: concentration tolerated by human lymphocytes without major changes in cell metabolism
Experimental: PHA-PBL (10^6 /ml) were treated with increasing doses of NOBA for 24 hours in the presence of MTT substrate and the relative absorbance at 550 nm reflects the metabolic activity of the cells. The level of product formation in the absence of NOBA was considered to be 100% and all experimental values were normalized to that control value.
Experiments were performed in which the incubations with NOBA was carried out at 0°, 22°, and 37° C. […] In agreement with the negligible cytotoxic effect of C-nitroso drugs on non-tumor cells described elsewhere in this application, human lymphocytes tolerated NOBA up to 50 μM without major changes in cell metabolism, which was assayed by quantitative dye reduction as described in Mosaran, J. Imm. Methods 65:55-63 (1983).

[6] = tested on: normal rhesus bone marrow stem cells; test: CFU stem cell toxicity assay, FIG. 5A; conditions: 10 μM

Q: For NC(=O)c1cccc(N=O)c1 [NOBA, 3-nitrosobenzamide], which “activity against tumor cells, in words” value [1] is on record?
A: highly effective (against tumor cells)

Q: And the “time of complete ejection of zinc from Zn(HIV1-F1)” value ([2]; 1 mM Zn(HIV1-F1), D2O, pH* 6.2, 30° C.)?
A: 90 min

Q: And the NOBA remaining unreacted ([2]; 90 min)?
A: 50%

Q: And the “life span of L1210-bearing BDF mice” value ([3]; 6 consecutive days, untreated 10 days, 35 days = end of observation)?
A: 35 days

Q: And the “in vivo chemotherapeutic response, in words” value ([3]; 6 days)?
A: highly significant in vivo chemotherapeutic response

Q: What about the “toxic effects in mice” value ([3]; 6 days) of the same compound?
A: no toxic effects

Q: What about the “killing of 855-2 cells (MTT), in words” value [4] of the same compound?
A: complete killing

Q: What about the MNTC at 24 h [5] of the same compound?
A: ≥ 50 µM

Q: What about the “CFU stem cell toxicity, in words” value [6] of the same compound?
A: non-toxic

— patent US5473074A, “Adenosine diphosphoribose polymerase binding nitroso aromatic compounds useful as retroviral inactivating agents, anti-retroviral agents and anti-tumor agents-54” (priority 1992, dated 1995)
